What all share (assay): NCI anticancer screen, dose series, 48 h
The test system of test [1] is MOLT-4 leukemia.
For test [2], the system named is HL-60(TB) leukemia.
Test [3] has as its system OVCAR-4 ovarian.
Test [4] concerns UO-31 renal.
Test [5] deals with NCI-H522 lung.
For test [6], the system named is RXF 393 renal.
The subject of test [7] is SNB-75 CNS.
In test [8] the test system is IGROV1 ovarian.
The test system of test [9] is MDA-N.
In test [10] the test system is UACC-62 melanoma.
Test [11] concerns CAKI-1 renal.
Test [12] relates to SK-OV-3 ovarian.
Test [13] deals with TK-10 renal.
The test system of test [14] is MALME-3M melanoma.
Test [15] concerns HCT-15 colon.
Test [16] has as its system HOP-62 NSCLC.
Test [17] deals with EKVX NSCLC.
Test [18] has as its system SF-539 CNS.
In test [19] the test system is M14 melanoma.

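Cells were grown in 96-well plates and exposed to each compound for 48 hours at five concentrations; endpoints were interpolated linearly between bracketing concentrations, or set to the highest concentration if not reached. TGI is the concentration that stops growth completely.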

With `CO/N=C/c1c(-c2ccc(Cl)cc2)c(/C=N/OC)n2c1sc1ccccc12`, the TGI in test [1], in test [2], in test [3], in test [4], in [5] and in test [6] was over 100 µM each time. Moreover, the TGI in [7], in test [8], in test [9], in test [10], in [11] and in test [12] was over 100 µM each time. Moreover, the TGI in test [13], in test [14], in test [15], in test [16] and in test [17] was over 100 µM in each case.
For the compound `CC[C@]12C=CCN3CCC4(c5cc(N=Nc6ccc([N+](=O)[O-])cc6)c(OC)cc5N(C)[C@H]4[C@@](O)(C(=O)OC)[C@@H]1OC(C)=O)[C@@H]32` (stereo partly specified), the TGI in test [1] is 13.1 µM; in [2], 28.1 µM; in [18] it was 45.8 µM; in [3] it was over 100 µM; in test [4], 25.9 µM; in [6] it was 35.6 µM. In addition, the TGI in test [7] is 35.1 µM; in [8] it was 33.2 µM; in test [9] it was 38.6 µM; in test [10] it was over 100 µM; in [11] it was 50 µM; in test [12], over 100 µM. Further, the TGI in test [13] is 63 µM; in test [14], 36.9 µM; in test [19], 40.5 µM; in test [15], 57.8 µM; in test [16], 43.6 µM; in [17] it was 56.9 µM.
For `Cc1nn(C(=O)c2ccncc2)c2c1C(c1ccccc1O)SC(N)=N2` (stereo unspecified), the TGI in [1], in test [2], in [18], in test [3], in test [5] and in [6] was over 10 µM in each case. Moreover, the TGI in [7], in test [8], in test [9], in test [10], in test [11] and in test [12] was over 10 µM each time. Further, the TGI in test [13], in test [14], in test [19], in test [15], in test [16] and in [17] was over 10 µM in each case.
Turning to `Clc1ccc(N=Cc2cc3cc(Br)ccc3nc2Cl)cc1`, the TGI in test [1] was over 50 µM; in test [2] it was 46.4 µM; in [18] it was over 50 µM; in test [3], 24.2 µM; in test [4], over 50 µM; in test [5] it was over 50 µM. The TGI in [6], in test [7], in test [8], in [9], in test [11] and in test [14] was over 50 µM in each case. Besides, the TGI in test [19], in test [15] and in test [17] was over 50 µM in each case.
Take `Oc1ccc2c3c1OC1c4[nH]c5c(c4CC4(O)C(C2)N(CC2CC2)CC[C@]314)CC1(O)C2Cc3ccc(O)c4c3[C@@]1(CCN2CC1CC1)C5O4` (stereo partly specified): the TGI in test [1] is 53.9 µM; in test [2], 41.4 µM; in [3], 90.5 µM; in test [4], over 100 µM; in test [5], 49.3 µM; in test [6], 82.2 µM. Moreover, the TGI is over 100 µM in test [8]; 38.9 µM in test [9]; 43.7 µM in test [10]; over 100 µM in test [11]; over 100 µM in test [12]; 44.6 µM in test [13]. In addition, the TGI in test [14] was 31.6 µM; in test [19], 32 µM; in test [15], over 100 µM; in [16], over 100 µM; in [17], 99.3 µM.
Take `COc1cc(CNC(=O)CCCCCCCCCCSSCCCCCCCCCCC(=O)NCc2ccc(O)c(OC)c2)ccc1O`: the TGI in test [1], in test [2], in test [18], in test [3], in test [5] and in test [6] was over 10 µM each time. Moreover, the TGI in [7], in test [8], in [9], in [10], in [11] and in [12] was over 10 µM throughout. Also, the TGI in test [13], in test [14], in test [19], in [15], in test [16] and in [17] was over 10 µM in each case.
In the case of `Cc1ccccc1Nc1cn(CCOc2ccccc2)c(=O)n(CCOc2ccccc2)c1=O`, the TGI in test [1], in test [2], in [3], in test [4], in test [5] and in test [6] was over 100 µM each time. Moreover, the TGI in [8] is over 100 µM; in test [9] it was over 100 µM; in test [10], over 100 µM; in test [11], over 100 µM; in [14], 63.7 µM; in test [19], over 100 µM. Besides, the TGI in test [15], in test [16] and in [17] was over 100 µM throughout.
For the compound `C[C@]12CCC(=O)C=C1CC[C@@H]1[C@@H]2CC[C@]2(C)C(=O)/C(=C\c3ccccc3)C[C@@H]12`, the TGI in test [1] is over 57 µM; in test [2] it was over 50.5 µM; in test [18], over 63.6 µM; in [3], over 100 µM; in [4], over 70.6 µM; in test [6] it was over 73.7 µM. In addition, the TGI in test [7] was over 100 µM; in test [8] it was over 100 µM; in test [9], 48 µM; in [10] it was over 66.2 µM; in test [11] it was over 100 µM; in test [12] it was over 100 µM. In addition, the TGI is over 100 µM in test [13]; 73.9 µM in [14]; over 66.2 µM in [19]; over 100 µM in test [15]; over 100 µM in test [16]; over 100 µM in [17].

Values taken from PubChem BioAssay (NCI).
